From patent US12358875B2, “N-(phenyl)-indole-3-sulfonamide derivatives and related compounds as GPR17 modulators for treating CNS disorders such as multiple sclerosis” (UCB Pharma GMBH, priority 2019, dated 2025)

Key:
GPR17 [1] = biological target: T1, GPR17 (Homo sapiens, UniProt Q13304); conditions: WO 2005/103291; cited from earlier work
Target sequence in this assay (Q13304 whole entry, species assumed): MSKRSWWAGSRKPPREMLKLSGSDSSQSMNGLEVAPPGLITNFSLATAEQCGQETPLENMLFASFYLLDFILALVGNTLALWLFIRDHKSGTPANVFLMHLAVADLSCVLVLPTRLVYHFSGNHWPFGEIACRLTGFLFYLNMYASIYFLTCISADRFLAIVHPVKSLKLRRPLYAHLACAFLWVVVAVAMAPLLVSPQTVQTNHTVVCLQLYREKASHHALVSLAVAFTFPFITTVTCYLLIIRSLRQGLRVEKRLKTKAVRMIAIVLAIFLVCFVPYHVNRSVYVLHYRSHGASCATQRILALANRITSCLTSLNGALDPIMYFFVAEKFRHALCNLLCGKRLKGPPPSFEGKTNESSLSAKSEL

GPR17 [2] = biological target: T1, GPR17; assay: Calcium mobilization functional assay (Ca2+ assay), inhibition of MDL29,951 response in CHO hGPR17; assay type: cell-based; parameters: host or cells: Flp-In T-REx CHO; conditions: CHO hGPR17, 50 nM MDL29,951 agonist; read-out: Ca^2+ assay pIC50 (converted)
Description: (§1) Flp-In T-REx CHO cells stably expressing human GPR17 receptor (CHO hGPR17) from Evi Kostenis' lab (Bonn University, Germany) were cultured at 37° C. in a humidified atmosphere of 5% CO2. Cells were grown in DMEM with Nutrient Mixture F-12 supplemented with hygromycin B (500 μg/ml) and blasticidin (30 μg/ml). Expression from the Flp-In locus was induced by treatment with doxycycline (1 μg/ml) for 16-20 h prior assays.
GPR17 is a G-protein coupled receptor. GPR17 activation triggers Gq-type G-protein signaling resulting in endoplasmic reticulum calcium (Ca^2+) stores release in cytosol which can be measured using Calcium 5 dye, a fluorescent indicator dye of cytosolic Ca^2+ levels. The compounds of the present invention were assessed either in the Ca^2+ assay or in the GPR17 cAMP assay, described further below.
CHO hGPR17 were defrosted and seeded at a density of 20,000 cells per well into black 384-well plates with clear bottom. Cells were incubated overnight at 37° C. in a humidified atmosphere of 5% CO2. […] Fluorescent signal relative to cytosolic Ca^2+ concentration was recorded over time at room temperature in FLIPR Tetra reader. […] Inhibitory effects of varying concentrations test compounds were measured and resulting pIC50s were determined. […]
Target sequence in this assay (Q13304 29-367 limits assumed): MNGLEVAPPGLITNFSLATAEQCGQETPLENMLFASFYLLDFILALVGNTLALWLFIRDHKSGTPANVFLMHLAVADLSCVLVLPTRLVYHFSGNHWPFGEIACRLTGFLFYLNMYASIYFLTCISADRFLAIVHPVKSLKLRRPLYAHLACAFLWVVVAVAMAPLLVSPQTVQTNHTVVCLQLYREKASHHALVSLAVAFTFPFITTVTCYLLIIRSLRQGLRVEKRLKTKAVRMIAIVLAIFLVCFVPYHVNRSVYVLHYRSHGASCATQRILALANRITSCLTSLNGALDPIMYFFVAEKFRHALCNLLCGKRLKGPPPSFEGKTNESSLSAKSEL

GPR17 [3] = biological target: T1, GPR17; assay: cAMP accumulation functional assay (HTRF), Schild analysis against MDL29,951 in CHO hGPR17; assay type: cell-based; parameters: host or cells: Flp-In T-REx CHO; conditions: CHO hGPR17, Schild analysis vs MDL29,951, 5 μM forskolin; read-out: cAMP assay pA2 (converted)
Description: as §1
Target sequence in this assay (Q13304 29-367 limits assumed): as above
GPR17 activation can also recruit Gi-type G-protein signaling, resulting in a decrease of intracellular cyclic adenosine monophosphate (cAMP). Intracellular cAMP changes can be measured using the HTRF cAMP dynamic assay kit from CisBio (Codolet, France). Using homogenous time-resolved fluorescence technology (HTRF), the assay is based on competition between native cAMP produced by cells and cAMP labelled with the dye d2. The tracer binding was determined by an anti-cAMP antibody labeled with cryptate.
CHO hGPR17 were detached with PBS containing EDTA and dispatched in black 384-well plates with 5,000 cells per well. Cells were first incubated for 30 minutes at room temperature in HBSS Hepes (pH 7.4) containing vehicle or varying concentrations of test GPR17 antagonist/inverse agonist compounds. Then, a dose response curve of MDL29,951 GPR17 agonist (typically from 10^−5M to 10^−10M) was added on vehicle and on each test GPR17 antagonist/inverse agonist compound concentration in a final volume of 20 μL HBSS Hepes buffer (pH 7.4) containing 1% DMSO, 5 μM forskolin and 0.1 mM IBMX. After 60 minutes incubation at room temperature, the reaction is terminated and the cells lysed by adding the d2 detection reagent and the cryptate reagent in 10 μL lysis buffer each according to manufacturer's instructions. After 60 minutes incubation, changes in cAMP concentrations are measured according to manufacturer's instructions using an Envision plate reader with laser excitation. All incubations were performed in duplicate. Data was analyzed using GraphPad Prism software using the 4-parameter logistic equation to measure MDL29,951 pEC50s in absence and presence of GPR17 antagonist/inverse agonist test compounds. Dose ratio (DR) were plotted against antagonist concentrations and Schild analysis provided estimated affinity pA2 of GPR17 antagonist/inverse agonist test compounds.
The activities of the Example compounds tested are depicted in the table below. The activity ranges A, B and C refer to pA2 values in the cAMP assay as follows: “A”: pA2 6.5≤x<7.5, “B”: pA2 7.5≤x<8.5, “C”: 8.5≤pA2.

IC50 (GPR17 [2]) [nM]	Kb (GPR17 [3]) [nM]	Compound	amounts needed in the assays (GPR17 activation) (GPR17 [1])
		NCC(=O)CCC(=O)O [Example 5-ALA, 5 amino levulinic acid]	three digit micromolar range
31.6 to 316		COc1nc(NS(=O)(=O)c2cn(C)c3cc(Cl)ccc23)c(F)cc1Cl [Example I-2, 6-chloro-N-(5-chloro-3-fluoro-6-methoxypyridin-2-yl)-1-methylindole-3-sulfonamide]	
31.6 to 316		Cn1cc(S(=O)(=O)Nc2ccc(C#N)cc2F)c2ccc(Cl)cc21 [Example I-1, 6-chloro-N-(4-cyano-2-fluorophenyl)-1-methylindole-3-sulfonamide]	
		NCc1[nH]cc(CCC(=O)O)c1CC(=O)O [PBG, porphobilinogen]	mM range
	31.6 to 316	COCCn1cc(S(=O)(=O)Nc2cc(F)c(OC(F)F)cc2F)c2ccc(Cl)cc21 [Example I-26, 6-chloro-N-[4-(difluoromethoxy)-2,5-difluorophenyl]-1-(2-methoxyethyl)indole-3-sulfonamide]	
	31.6 to 316	O=S(=O)(Nc1cc(F)c(OC(F)F)cc1F)c1cn(CC(F)F)c2nc(Cl)ccc12 [Example I-5, 6-chloro-1-(2,2-difluoroethyl)-N-[4-(difluoromethoxy)-2,5-difluorophenyl]pyrrolo[2,3-b]pyridine-3-sulfonamide]	
